Measured values as given in US5538945A, “Stimulation of hair growth by peptide copper complexes” (ProCyte Corporation, priority 1994, dated 1996).

Columns and labels:
Assay type in all cases: in vivo
[1] = tested on: C3H mice (telogen hair growth phase); test: Stimulation of hair growth after intradermal injection of peptide-copper complexes (Example 12); details: peptide to copper 2:1, day 21; for Number of Animals Growing Hair: responders/injected mice
Protocol: The following example illustrates the stimulation of hair growth in warm-blooded animals after intradermal injection of representative peptide-copper complexes of this invention.
As in Example 11 above, the backs of C3H mice (60 days old, telogen hair growth phase) were closely clipped on day 1 using an electric clipper. A sterile saline solution containing the indicated peptide-copper complex was then injected intradermally (i.e., infiltrated under the skin) at two locations within the clipped areas of the mice. Injection at two locations provided two test locations within the clipped area of each mouse. Each injection (0.1 ml) contained between 0.75 to 1.5 mg of the peptide-copper complex within the sterile saline solution. A group of saline injected mice (0.1 ml) served as controls. Following injection of the peptide-copper complexes, indications of hair growth were seen within 10 days. The first visual signs were a darkening of the skin in a circular region surrounding the injection site. The size of this region is generally dose dependent, increasing with an increase in dose. The 0.1 ml injections used in this experiment produced a circle of hair growth measuring approximately 0.5 cm^2 to 5 cm^2 in diameter. Active hair growth occurred between 14-20 days following injection, with a maximum effect seen by day 29. Both the number of mice growing hair at the injection site and the diameter of the hair growth region were determined at day 21.

[2] = tested on: Sprague-Dawley rat pups treated with cytosine arabinoside (Ara-C); test: Localized maintenance of hair follicle viability by intradermal injection during Ara-C chemotherapy (Example 16); details: for Degree of Alopecia (mean) at the site of injection: day 10, grade 0 normal to 4 total loss of hair
Excerpt: The following experiment illustrates the localized maintenance of hair follicle viability (i.e., growth) by intradermal (local) injection of the peptide-copper complex AHK:Cu during treatment with the chemotherapeutic agent cytosine arabinoside (Ara-C).
In this experiment, Sprague-Dawley rat pups (age 8 days) were maintained in 5 litters (n=10-11/litter) for the duration of this study. On day 0, litters received intradermal (ID) injections of AHK:Cu (1:1) in a sterile saline solution, or a saline control (1 injection per animal, 0.05 ml per injection). Each litter contained 2 normal control animals where no AHK:Cu or Ara-C was administered (i.e., saline only). On day 1, designated animals began a series of 7 consecutive daily intraperitoneal (IP) injections with Ara-C (25 mg/kg). On day 10, all animals were evaluated for the extent of hairloss (alopecia) at the injection sites using the rating identified in Example 15.
Ara-C injections caused significant hair loss by day 5-6 in most animals. In order to evaluate the stimulatory effect of AHK:Cu, the degree of hairloss was evaluated at the injection site daily. […] Table 9 presents the results as evaluated on day 10 using the previously described rating scale, with the "Degree of Alopecia" being expressed as the average response seen at the site of injection.

[3] = tested on: telogen cycle female C3H mice; test: Stimulation of hair growth by topical application of a peptide-copper complex (Example 14)
Protocol: This example illustrates the stimulation of hair growth in warm-blooded animals by topical application of a peptide-copper complex. In this experiment, telogen cycle female C3H mice (60-65 days old) were prepared by clipping their posterior dorsal region (i.e., day 1). Topical application of peptide-copper complexes was performed twice per day (Monday-Friday) using a cotton-tipped applicator which delivered approximately 0.1 ml per treatment. The topical formulation used in this experiment contained the following components:
Topical application of the above formulation continued until the onset of follicle pigmentation, which proceeds the emergence of the hair shall. Measurement of the degree of response was performed using digital image analysis at weekly intervals, beginning at day 14. Data was expressed as the percent treatment area response using the following equation:
% treatment area=(growth area/treatment area)×100
For comparison purposes to illustrate the effect of hydrophobic amino acid residues on hair growth after topical application, AHK:Cu was compared to AHF:Cu. In this experiment, topical formulations containing AHK:Cu (1.1:1) and AHF:Cu (1.1:1) were prepared at a concentration of 0.5% and 0.1% (w/w) as indicated above. Hair growth response (i.e., "Percent Treatment Area") was determined at day 20, day 27 and at day 34.

[4] = tested on: C3H mice (telogen hair growth phase); test: Stimulation of hair growth by intradermal injection of peptide-copper complexes containing D-amino acids (Example 13); details: peptide to copper 1.1:1
Protocol: This example illustrates the stimulation of hair growth in warm-blooded animals by intradermal injection of AHK:Cu (1.1:1) utilizing a D-amino acids inplace of the naturally occurring L-amino acid.
In this experiment, the backs of C3H mice (60 days old, telogen hair growth phase) were closely clipped on day 1 using an electric clipper. A sterile saline solution containing AHK:Cu (1.1:1), or AHK:Cu (1.1:1) containing a D-amino acid, was then injected intradermally (i.e., infiltrated under the skin) at two locations within the clipped areas of the mice. Injection at two locations provided two test locations within the clipped area of each mouse. Each injection (0.1 ml) contained either 1.2 or 1.8 μmoles per injection of peptide-copper complex in the sterile saline solution. A group of saline injected mice (0.1 ml) served as controls. Following injection of peptide copper complex, indications of hair growth were seen within 10 days. The first visual signs were a darkening of the skin in a circular region surrounding the injection site. The size of this region is generally dose dependent, increasing with an increase in dose. The 0.1 ml injections used in this experiment produced a circle of hair growth measuring approximately 0.5 cm^2 to 5 cm^2 in diameter. […]
The degree of hair growth was determined by measuring the total area of hair growth at the two injection sites.

[5] = topical 0.1% w/w twice per day, peptide to copper 1.1:1, day 20
[6] = topical 0.1% w/w twice per day, peptide to copper 1.1:1, day 27
[7] = topical 0.1% w/w twice per day, peptide to copper 1.1:1, day 34
[8] = topical 0.5% w/w twice per day, peptide to copper 1.1:1, day 20
[9] = topical 0.5% w/w twice per day, peptide to copper 1.1:1, day 27
[10] = topical 0.5% w/w twice per day, peptide to copper 1.1:1, day 34

Substance	Area of Hair Growth ([1]; 0.75 mg/injection intradermal) [cm diameter]	Number of Animals Growing Hair ([1]; 0.75 mg/injection intradermal)	Area of Hair Growth ([1]; 1.50 mg/injection intradermal) [cm diameter]	Number of Animals Growing Hair ([1]; 1.50 mg/injection intradermal)	Degree of Alopecia (mean) at the site of injection ([2]; 0.05 mg per injection, 3.5 mg/kg intradermal day 0, peptide to copper 1:1, Ara-C 25 mg/kg IP x 7 days)	Degree of Alopecia (mean) at the site of injection ([2]; 0.10 mg per injection, 7.0 mg/kg intradermal day 0, peptide to copper 1:1, Ara-C 25 mg/kg IP x 7 days)	Degree of Alopecia (mean) at the site of injection ([2]; 0.25 mg per injection, 17.5 mg/kg intradermal day 0, peptide to copper 1:1, Ara-C 25 mg/kg IP x 7 days)	Degree of Alopecia (mean) at the site of injection ([2]; 0.50 mg per injection, 35.0 mg/kg intradermal day 0, peptide to copper 1:1, Ara-C 25 mg/kg IP x 7 days)	Histology of hair follicles at the injection site ([2]; intradermal, with Ara-C, follicles away from the injection dystrophic and non-functional)	Radius of retention of hair around the injection site ([2]; intradermal, with Ara-C, most notably in the 0.1 to 0.5 mg dose groups) [cm]	Relative hair growth activity after topical administration ([3]; AHK:Cu compared to AHF:Cu, topical)	Percent Treatment Area (growth area/treatment area x 100) [3, 5] [%]	Percent Treatment Area (growth area/treatment area x 100) [3, 6] [%]	Percent Treatment Area (growth area/treatment area x 100) [3, 7] [%]	Percent Treatment Area (growth area/treatment area x 100) [3, 8] [%]	Percent Treatment Area (growth area/treatment area x 100) [3, 9] [%]	Percent Treatment Area (growth area/treatment area x 100) [3, 10] [%]	Area of Hair Growth (total area at the two injection sites) ([4]; 1.2 μmoles per injection intradermal)	Area of Hair Growth (total area at the two injection sites) ([4]; 1.8 μmoles per injection intradermal)
alanyl-histidyl-lysine:copper [AHK:Cu]	< 1	1/4	> 1	4/4	3.25	2.38	1.44	1.11	normal appearing and functioning anagen hair follicles	0.25	more active in stimulating hair growth	1.29 ± 1.29	23.07 ± 18.84	90.14 ± 2.96	75.87 ± 7.64	100	100	3.07 ± 0.76	3.24 ± 1.17
alanyl-histidyl-phenylalanine:copper [AHF:Cu]												0.00	0.00	12.91 ± 12.91	55.05 ± 17.44	100	100		
